Measured values from patent publication US8097643B2, “Indol-4 sulfonamide derivatives, their preparation and their use 5-ht-6 as modulators” (Laboratorios del Dr. Esteve S. A., priority 2003, dated 2012).

Tests used:
[1] = biological target: T1, recombinant human 5HT6 receptor (Homo sapiens, UniProt P50406); experiment: Binding to the 5HT6 serotonin receptor ([3H]-LSD radioligand); details: 10^−6 M compound; [3H]-LSD 2.7 nM; HEK-293 cell membranes
T1 construct: purchased Receptor Biology; host or cells: HEK-293 cell membranes
Procedure: Binding to the 5Ht6 Serotonin Receptor
HEK-293 cell membranes expressing the recombinant human 5HT6 receptor were supplied by Receptor Biology. […] Incubation ends by quick filtration in a Harvester Brandel Cell through fiberglass filters of the Schleicher & Schuell GF 3362 trademark, pretreated with a 0.5% polyethyleneimine solution. […] The vials are left to equilibrate for several hours prior to their counting in a 1414 Wallac Winspectral scintillation counter. […] The assays are carried out in triplicate. The inhibition constants (Ki, nM) are calculated by non-linear regression analysis using the EBDA/LIGAND program [Munson and Rodbard, Analytical Biochemistry, 1980, 107, 220].
Binding of the new compounds of general formula (Ia and Ib and Ic) to the 5-HT6 receptor was determined as previously described.

T1 sequence (P50406 whole entry): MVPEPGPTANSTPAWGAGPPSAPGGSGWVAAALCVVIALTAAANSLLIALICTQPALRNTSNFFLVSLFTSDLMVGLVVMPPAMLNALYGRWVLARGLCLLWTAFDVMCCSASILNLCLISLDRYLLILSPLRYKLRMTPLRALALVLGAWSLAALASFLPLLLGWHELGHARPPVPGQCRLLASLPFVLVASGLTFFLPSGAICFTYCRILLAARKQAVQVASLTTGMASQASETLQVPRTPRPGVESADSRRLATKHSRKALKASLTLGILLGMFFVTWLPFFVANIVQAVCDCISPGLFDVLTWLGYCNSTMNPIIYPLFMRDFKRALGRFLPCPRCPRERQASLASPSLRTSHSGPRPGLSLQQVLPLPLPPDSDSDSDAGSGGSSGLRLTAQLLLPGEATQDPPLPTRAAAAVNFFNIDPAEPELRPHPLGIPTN

| Molecule | melting point | inhibition at 1 µM [1] | % Inhibition 10^−6 M [1] |
| --- | --- | --- | --- |
| CN(C)CCn1ccc2c(NS(=O)(=O)c3cc(Cl)cc(Cl)c3)cccc21 [Example 7, N-[1-(2-dimethylaminoethyl)-1H-indole-4-yl]-3,5-dichlorobenzenesulfonamide] | 113 to 118 °C | 72.3% |  |
| N-[1-(2-dimethylaminoethyl)-1H-indole-4-yl]-naphtalene-1-sulfonamide [Example 3] |  |  | 94.8% |
| N-[1-(2-dimethylaminoethyl)-1H-indole-4-yl]-naphtalene-2-sulfonamide [Example 2] |  |  | 104.3% |

Continued, in another order:

| melting point | Molecule | inhibition at 1 µM [1] | % Inhibition 10^−6 M [1] |
| --- | --- | --- | --- |
| 78 to 80 °C | Cc1c(S(=O)(=O)Nc2cccc3c2ccn3CCN(C)C)sc2ccc(Cl)cc12 [Example 1, N-[1-(2-dimethylaminoethyl)-1H-indole-4-yl]-5-chloro-3-methyl-benzo[b]thiophene-2-sulfonamide] |  |  |
| 137 to 140 °C | CN(C)CCn1ccc2c(NS(=O)(=O)c3ccc(-c4ccccc4)cc3)cccc21 [Example 4, N-[1-(2-dimethylaminoethyl)-1H-indole-4-yl]-4phenylbenzenesulfonamide] |  |  |
| 47 to 54 °C | CN(C)CCn1ccc2c(NS(=O)(=O)CCc3cccc4ccccc34)cccc21 [Example 5, N-[1-(2-dimethylaminoethyl)-1H-indole-4-yl]-2-(naphthalene-1-yl)-ethanesulfonamide] |  |  |
